Legend:
P. aeruginosa biofilms [1] = assay: Microarray of genes regulated by tobramycin in P. aeruginosa biofilms; format: cell-based, Pseudomonas aeruginosa PAO1; details: for Fold activation ± SE: tobramycin 5 μg/ml 24 h, treated vs untreated biofilms
Procedure: (§1) P. aeruginosa PAO1 was grown at 37° C. with aeration in chemostat vessels (100 ml of medium, dilution rate, 0.2 h^−1). The growth medium consisted of 0.5% NH4Cl, 0.25% NaCl, 0.015% KH2PO4, 1.5% MOPS (pH, 7.0), and 0.015% casamino acids. For biofilms, the chemostat vessel contained 100 g of sterilized granite pebbles (approximately 70 pebbles). Vessels were inoculated with approximately 10^6 P. aeruginosa cells. For biofilm cultures, cells were allowed to attach to the rocks for 24 h prior to initiating the flow of medium, after which flow was initiated at a high rate (100 ml/h). After 2 h at this flow rate, more than 99% of all unattached bacteria were washed away. Flow was then decreased to give a final dilution rate identical to that in the planktonic chemostat. After 5 days cell numbers in the biofilm and planktonic chemostats were similar ([…]) as determined with standard plate counting techniques. To remove biofilm bacteria for plate counting, rocks were vortexed for 2 minutes in 5 ml phosphate buffered saline. A small planktonic population was present in the biofilm reactors throughout the experiment, but never represented more than 0.1% of the total chemostat population.
RNA was isolated from planktonic and biofilm bacteria using the Trizol reagent (Life Technologies, Grand Island, N.Y.). Planktonic cells were pelleted by centrifugation (10,000 rpm for 10 min) at 4° C. For biofilm RNA isolation, rocks containing biofilm bacteria were rinsed with sterile medium and suspended in Trizol reagent. After vortexing for 1 min the rocks were removed and the remaining cell material was sonicated for 10 s. Insoluble material was removed by centrifugation and RNA was isolated as described above. Contaminating DNA was eliminated by DNase treatment, and RNA was isolated by phenol-chloroform extraction and precipitation with LiCl. cDNA probes were produced from RNA using random primers (NSNSNSNSNS) and Cy5-dCTP or Cy3-dCTP (Amersham, Buckinghamshire, UK) according to previously described procedures (J. K. Ichikawa, et al., Proc. Natl. Acad. Sci. U.S.A. 97, 9659 (2000)). To avoid complications associated with Cy5-dCTP and Cy3-dCTP incorporation rates into resulting cDNA, each RNA comparison was performed with both dye combinations on separate microarrays.
The microarrays were glass microscope slides containing representative gene-specific DNA fragments from 5,500 of the estimated 5,570 open reading frames (ORFs) of P. aeruginosa. The microarrays were printed with a Generation II Array printer (Molecular Dynamics), and the hybridized microarrays were images with a Generation II scanning confocal fluorescent microscope (Molecular Dynamics).
The existence in a biofilm might induce moderate levels of resistance to all antimicrobial treatments. This could afford cells in a biofilm the opportunity to respond to an antibiotic by inducing genes more specific to that antibiotic. Thus, biofilms exposed to tobramycin were compared with untreated biofilms. Tobramycin (5 μg/ml) was added to influent medium after 4 days of biofilm growth. After 24 h, biofilms were removed and processed for RNA.
The results (shown in Table 2, below) are from two independent experiments (1 standard error of the mean, SE). Positive values represent activation and negative values represent repression. Gene identifications and P. aeruginosa ORF numbers were obtained from the Pseudomonas Genome Project website. Genes that were repressed in biofilms and activated by tobramycin are underlined. Genes that were activated in biofilms and repressed by tobramycin are shown in italics and bold-face type. Eight of the 20 genes identified as being differentially expressed in tobramycin-treated biofilms (Table 2) were also identified as being differentially expressed in biofilms as compared to planktonic bacterial cells. […]

[2] = test system: P. aeruginosa wild-type and rpoS mutant biofilms; assay: Killing of wild-type and rpoS mutant biofilms by tobramycin; format: cell-based, Pseudomonas aeruginosa; details: increasing amounts of tobramycin
Procedure: To examine the involvement of rpoS in biofilm development, the wild-type strain and an isogenic rpoS mutant strain were grown in flow cell reactors and both were tagged with a gfp plasmid which expresses green fluorescent protein (GFP) (Whitely, et al. (2000) J. Bacteriology 182:4356-4360). The P. aeruginosa biofilms that developed in the flow cells were examined by scanning confocal laser microscopy. Within four hours, differences between the rpoS mutant and the wild-type biofilms were evident. The mutant had attached to and covered much more of the glass surface. In a quantitative microtitre dish assay, biofilm formation of the parent strain was 38% of the rpoS mutant. After 24 hours, the mutant biofilm had matured and large structured groups of bacteria were evident.
To assess whether rpoS influences the susceptibility of P. aeruginosa biofilms to antibiotics, biofilms of the P. aeruginosa wild-type and rpoS mutant were treated with increasing amounts of the aminoglycoside antibiotic tobramycin. […] These studies confirm that the microarray experiment, as described herein, identified a gene important for biofilm development and antibiotic susceptibility.

[3] = test system: planktonic P. aeruginosa PAO1; assay: Minimum inhibitory concentration for planktonic cells; format: cell-based, Pseudomonas aeruginosa PAO1
P. aeruginosa biofilms [4] = assay: Plate counting of biofilm cell numbers after tobramycin; format: cell-based, Pseudomonas aeruginosa PAO1; details: 5 μg/ml
Procedure: as §1
The existence in a biofilm might induce moderate levels of resistance to all antimicrobial treatments. […]

[5] = tobramycin-treated vs untreated biofilms, 7× MIC for planktonic cells

Compound: NC[C@H]1O[C@H](O[C@H]2[C@H](O)[C@@H](O[C@H]3O[C@H](CO)[C@@H](O)[C@H](N)[C@H]3O)[C@H](N)C[C@@H]2N)[C@H](N)C[C@@H]1O [tobramycin]
- Fold activation ± SE (P. aeruginosa biofilms [1]; gene: Conserved hypothetical protein (PA2498)): 2.9 ± 0.6 Fold
- Fold activation ± SE (P. aeruginosa biofilms [1]; gene: Conserved hypothetical protein (PA3463)): 8.3 ± 3.2 Fold
- Fold activation ± SE (P. aeruginosa biofilms [1]; gene: Conserved hypothetical protein (PA3785)): 5.0 ± 1.3 Fold
- Fold activation ± SE (P. aeruginosa biofilms [1]; gene: Conserved hypothetical protein (PA3819)): 2.1 ± 0.3 Fold
- Fold activation ± SE (P. aeruginosa biofilms [1]; gene: DnaK (PA4761)): 2.7 ± 0.4 Fold
- Fold activation ± SE (P. aeruginosa biofilms [1]; gene: GroES (PA4386)): 5.8 ± 1.1 Fold
- Fold activation ± SE (P. aeruginosa biofilms [1]; gene: Hypothetical protein (PA1110)): 8.7 ± 1.7 Fold
- Fold activation ± SE (P. aeruginosa biofilms [1]; gene: Hypothetical protein (PA1870), negative = repression): −6.4 ± 1.5 Fold
- Fold activation ± SE (P. aeruginosa biofilms [1]; gene: Hypothetical protein (PA1893), negative = repression): −2.4 ± 0.3 Fold
- Fold activation ± SE (P. aeruginosa biofilms [1]; gene: Hypothetical protein (PA2703)): 19.3 ± 3.7 Fold
- Fold activation ± SE (P. aeruginosa biofilms [1]; gene: Hypothetical protein (PA3884), negative = repression): −14.7 ± 5.7 Fold
- Fold activation ± SE (P. aeruginosa biofilms [1]; gene: Hypothetical protein (PA4326)): 23.2 ± 7.5 Fold
- Fold activation ± SE (P. aeruginosa biofilms [1]; gene: Hypothetical protein of bacteriophage PF1 (PA0721), negative = repression): −3.9 ± 1.0 Fold
- Fold activation ± SE (P. aeruginosa biofilms [1]; gene: Hypothetical protein of bacteriophage PF1 (PA0725), negative = repression): −3.1 ± 0.5 Fold
- Fold activation ± SE (P. aeruginosa biofilms [1]; gene: Probable DNA binding protein (PA5348)): 18.1 ± 4.9 Fold
- Fold activation ± SE (P. aeruginosa biofilms [1]; gene: Probable drug efflux protein (PA1541)): 4.7 ± 1.4 Fold
- Fold activation ± SE (P. aeruginosa biofilms [1]; gene: Probable metal transporting P-type ATPase (PA3920)): 3.6 ± 1.1 Fold
- Fold activation ± SE (P. aeruginosa biofilms [1]; gene: Probable transcriptional regulator (PA3574)): 3.3 ± 0.6 Fold
- Fold activation ± SE (P. aeruginosa biofilms [1]; gene: Ribosome modulation factor (PA3049)): 24.7 ± 11.4 Fold
- Fold activation ± SE (P. aeruginosa biofilms [1]; gene: Urease beta subunit (PA4867), negative = repression): −3.7 ± 1.1 Fold
- number of genes activated by tobramycin (P. aeruginosa biofilms [1]; [5]): 14
- number of genes differentially expressed in tobramycin-treated biofilms (P. aeruginosa biofilms [1]; [5]): Twenty
- number of genes repressed by tobramycin (P. aeruginosa biofilms [1]; [5]): 6
- resistance of rpoS mutant biofilms to killing by tobramycin compared with wild-type biofilms [2]: much more resistant
- 5 μg/ml concentration as multiple of the minimum inhibitory concentration [3]: approximately 7 ×
- effect on cell numbers in biofilms (P. aeruginosa biofilms [4]): did not significantly affect cell numbers in biofilms
